Reference: patent US20190211317A1, “PEPTIDES AND NANOPARTICLES FOR INTRACELLULAR DELIVERY OF GENOME-EDITING MOLECULES” (Aadigen, LLC, priority 2016, published 2019)
Where “and” joins values, the source holds several entries; their conditions need not be identical. Equal values may be shown once. Read-outs that look alike come from different tables or passages of the source.

Key:
[1] = CPP/CAS9 and CPP/CAS9:gRNA particle size, polydispersity, zeta potential (Zetasizer 4); format: physicochemical
Method: The CPP/CAS9 and CPP/CAS9/sgRNA particles were further characterized; the mean size, polydispersity and zeta potential were measured with Zetasizer 4 apparatus (Malvern Ltd). […] The mean size and the polydispersity of the CCP/CAS9 and CCP/CAS9:gRNA complexes were determined at 25° C. for 3 min per measurement and zeta potential was measured with Zetasizer 4 apparatus (Malvern Ltd).

[2] = test system: EGFP reporter gene in EGFP-U2OS, EGFP-HEK, EGFP-JURKAT cells; assay: EGFP reporter gene disruption from CPP delivery of CAS9:sgRNA (flow cytometry); format: cell-based, human; conditions: for decrease in EGFP expression: CAS9:gRNA 50 nM, CPP:cargo 20:1;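 for all read-outs here: cells carrying one integrated EGFP reporter received peptide-complexed CAS9 preloaded 1:1 with EGFP sgRNA, cultured 72 h, then EGFP level read by flow cytometry, lipofectamine 2000 and RNAiMAX as positive controls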
Method: Efficacy of CPP-mediated delivery was quantified using a well-established CAS9-induced gene disruption method (Fu et al, 2013, supra), by targeting a specific site in the exogenous EGFP gene reporter in three human cell lines expressing EGFP (GFP-U2OS, EGFP-HEK, EGFP-JURKAT).
Stock solutions of amphipathic peptides were prepared at 1 mg/mL in distilled water and sonicated for 10 min. CAS9 protein was preloaded with purified EGFP sgRNA at a molar ratio of 1:1 and incubated for 10 min prior to forming complexes with the peptides. Preloaded CAS9/gRNA complexes (10 nM, 25 nM, and 50 nM) were mixed with CPPs at 5:1, 10:1 and 20:1 molar ratios of CPP to cargo and incubated for 30 min at 37° C. prior to cell transfection.
Cell line containing a single integrated EGFP reporter gene (GFP-U2OS, EGFP-HEK and EGFP-JURKAT) were cultured in Dulbecco's Modified Eagle's Medium (DMEM), supplemented with 2 mM glutamine, 1% antibiotics (streptomycin 10,000 μg/mL, penicillin, 10,000 IU/mL) and 10% (w/v) foetal calf serum (FCS) at 37° C. in a humidified atmosphere containing 5% CO2. A total of 150,000 cells seeded in a 35 mm dish the day prior to transfection were grown to 50-60% confluence and overlaid with 200 μl of preformed complexes, incubated for 3-5 min, then 400 μl of DMEM was added. After 30 min incubation at 37° C., 1 mL of fresh DMEM containing 16% FCS was added to reach a final FCS concentration of 10%, without removing the overlay of CPP/CAS9-gRNA complexes. Cells were returned to the incubator for 72 hours.
CAS9-induced double-strand break formation was analyzed using flow cytometry by monitoring level of EGFP expression. […] Both lipofectamine 2000 and RNAiMAX delivery methods were used as positive controls.

[3] = test system: endogenous EMX1, AAVS and HPRT genes in U2OS and Human (H9) embryonic stem cells; assay: Delivery of multiple RGEN:gRNA complexes: EMX1, AAVS, HPRT editing in U2OS and H9 ES cells (T7E1); format: cell-based
Method: RNAiMAX delivery method was used as a positive control.
U2OS cells were treated as described previously. H9 embryonic stem cells were cultured in Dulbecco's modified Eagle's medium with 4 mM L-glutamine adjusted to contain 1.5 g/L sodium bicarbonate and 4.5 g/L glucose and supplemented with 0.1 mM 2-mercaptoethanol, 85%; and 15% ES-Cell Qualified fetal bovine serum. […] CAS9-induced double-strand break formation followed by repair through NHEJ was analyzed 72 hr after transfection by T7E1 assay and quantified using Fragment Analyzer System. The deletion (indel) frequencies in EMX1, AAVS and HPRT genes were quantified using T7E1 assay. Data for on-target mutations induced by RGEN:gRNA are reported as an average of 3 separate experiments.

[4] = test system: endogenous hPD1 gene in JURKAT and K562 cells; assay: hPD1 gene editing in T cell lines (T7E1 assay); format: cell-based, human
Method: CAS9 protein was preloaded with purified sgRNA at a molar ratio of 1:1 and incubated for 10 min prior to forming complexes with peptides.
5×10^6 cells were washed twice with DPBS by centrifuging at 800 rpm for 5 minutes and resuspended in 100 ^l transfection buffer, and then transferred into the electroporation cuvette. An optimized program selected for both high transfection and high efficiency on T cells was used. After electroporation, cells were resuspended in 500 ^l pre-warmed AIM-V medium containing 10% FBS and incubated at 37° C. in 5% CO2. The transfection efficiency was evaluated after 48 hr by flow cytometry or T7E1 assay.
RNAiMAX delivery method was used as positive control. Cells were either resuspended in or overlaid with 100 μl of preformed complexes, incubated for 3-5 min, and then 300 μl of DMEM was added. […] The indel frequency in the hPD1 gene was quantified using the T7E1 assay.

[5] = test system: hPD1 gene in human T cells; assay: hPD1 gene editing in primary human T cells (T7E1 assay); format: cell-based
Method: T cells were isolated from PBMCs (2 different donors) using anti-CD3/anti-CD28 antibodies bound to paramagnetic beads (Dynabeads ClinExVivo CD3/CD28, Invitrogen) at a ratio of 3:1 (beads:cells). The cells and beads were co-incubated for 2 hours at room temperature and CD3′ cell enrichment was performed using Dynal ClinExVIVO MPC magnet (Thermo Fisher). The anti-CD3/anti-CD28 paramagnetic beads were removed, washed and concentrated. Cells in the CD3′ fraction were resuspended in activation media at a concentration of 1×10^6 cells/ml with AIM-V medium (Thermo Fishers) supplemented with 10% fetal calf serum, 300 IU/ml IL2 and 50 ng/ml OKT3 (MuromonAB-CD3) for two days.
Cells were transfected by electroporation with CD-19 plasmid or gRNA/CAS9 (5 μg/10 μg) using a Nucleofector 2b (Lonza, Germany) with the Amaxa Human T cells Nucleofector Kit, VPA-1002 (Lonza, Germany). 5×10^6 cells were washed twice with DPBS by centrifuging at 800 rpm for 5 minutes and resuspended in 100 ^l transfection buffer, and then transferred into the electroporation cuvette. An optimized program selected for both high transfection and high efficiency on T cells was used. After electroporation, cells were resuspended in 500 ^l pre-warmed AIM-V medium containing 10% FBS and incubated at 37° C. in 5% CO2. The transfection efficiency was evaluated after 48 hr by flow cytometry or T7E1 assay.
As control, CAS9 loaded with gRNA targeting GFP was used.
Cells were returned to the incubator for 72 hours. CAS9-induced double-strand break followed by repair through non-homologous end joining (NHEJ) was analyzed by either the T7E1 assay or using the Genome Cleavage Detection kit (GCD Thermo Fisher) and quantified using Fragment Analyzer System. The indel frequency in the target gene was quantified using the T7E1 assay. The cultures were expanded and analyzed for viability and PD1 levels every 10 days. T cell expansion medium contained AIM V medium, supplemented with 5% heat-inactivated human AB Serum, 1% Gluta-Max, and 300 IU/mL IL-2.

JURKAT and K562 cells = assay: Toxicity of CPP/CAS9/gRNA complexes in T cell lines (MTT assay); format: cell-based, human; conditions: up to 100 nM, 24 h
Method: A total of 30,000 JURKAT or K562 cells seeded in 24-well plates the day prior to transfection were incubated with increasing concentrations of CPP/CAS9/gRNA complexed at 20:1 molar ratio (CPP to CAS9/gRNA) ranging from 1 nM to 200 nM for 30 min prior to addition of medium to reach a final 10% concentration of FCS. Cytotoxic response was measured 24 hours later by colorimetric MTT assay (Sigma, Germany). For MTT assay, cell culture medium was removed and replaced with PBS containing 2.5 mg/ml of MTT for 4 hours. Results correspond to the average of 3 independent experiments.

[6] = test system: HPRT gene in mouse muscle myoblast cells (C2C12); assay: HPRT gene editing in C2C12 myoblasts (T7E1 assay); format: cell-based
Method: (§1) […] Delivery by RNAiMAX was included as a positive control.
(§2) CAS9-induced NHEJ was analyzed 72 hours after transfection by PCR (FIG. 26) and T7E1 assay (FIG. 27). The deletion (indel) frequencies in the HPRT gene were quantified using a T7E1 assay by quantifying the amount of uncut vs cut DNA using a Fragment Analyzer System. Data for on-target mutations induced by RGEN/gRNA are reported as an average of 3 separate experiments
(§3) The cell line was maintained in 5% CO2 at 37° C. and cell viability was assessed by the Trypan Blue exclusion test. To induce myogenic differentiation, at about 80% cell confluence the medium containing 10% fetal calf serum was substituted with medium containing 1% fetal calf serum. The cells were transfected at the undifferentiated stage or at day 7 after differentiation.

[7] = test system: E-Catenin gene in mouse muscle myoblast cells (C2C12); assay: ü-Catenin gene disruption in C2C12 myoblasts (PCR gel); format: cell-based; conditions: undifferentiated and differentiated C2C12
Method: Cells were transfected with CAS9/gRNA (2.5 μM/5 μM) complexes associated with CPP (+) or not (−) at a molar ratio of 20:1 (peptide to complex) and compared to delivery by RNAiMAX for E-Catenin expression. ü-actin expression was included as a loading control.
as §1, §2, §3

[8] = test system: endogenous EMX1 gene in U2OS, HEPG2, K562 cells and primary human fibroblasts; assay: EMX1 editing from CPP delivery of CAS9 mRNA/gRNA (T7E1); format: cell-based
Method: CPP/CAS9 mRNA/gRNA complexes were formed by mixing the CAS9 mRNA (0.5 μg) and gRNA (5 μg) with CPP at a 20:1 molar ratio of CPP:cargo and incubating for 30 min at 37° C. prior to cell transfection. Suspension and adherent cells were transfected according to the protocols described in Example 13a. RNAiMAX-mediated delivery (Invitrogen Thermo Fisher France) was used as a control. EMX1 gene editing was analyzed at day 3 and day 6 by T7E1 assay and quantified using a Fragment Analyzer System.

[9] = test system: endogenous EMX1 gene in U2OS, HEPG2 cells and primary human fibroblasts; assay: EMX1 editing from CPP delivery of CAS9-expressing plasmid and gRNA (T7E1); format: cell-based; conditions: the three cell types
Method: EMX1-targeting gRNAs were prepared as described above. CPP/plasmid/gRNA complexes were prepared by mixing 0.5 μg of a CAS9-expressing plasmid (Addgene MLM3639-Plasmid #42252) and 5 μg gRNA with CPP at a 20:1 molar ratio of CPP to nucleic acid (plasmid+gRNA) and incubating for 30 min at 37° C. prior to cell transfection. Suspension and adherent cells were transfected according to the protocols described in Example 13a. Lipofectamine 2000- and RNAiMAX-mediated delivery methods (Invitrogen Thermo Fisher France) were used as controls. EMX1 gene editing was analyzed at day 3 and day 6 by T7E1 assay and quantified using a Fragment Analyzer System.

primary human T cells = assay: CAS9 protein expression in primary human T cells after CAS9 mRNA or plasmid delivery (ELISA); format: cell-based; conditions: day 3
Method: T cells were isolated from PBMCs using anti-CD3/anti-CD28 antibodies bound to paramagnetic beads (Dynabeads ClinExVivo CD3/CD28, Invitrogen) at a ratio of 3:1 (beads:cells). The cells and beads were co-incubated for 2 hours at room temperature and CD3^+ cell enrichment was performed using Dynal ClinExVIVO MPC magnet (Thermo Fisher). The anti-CD3/anti-CD28 paramagnetic beads were removed, washed and concentrated. Cells in the CD3^+ fraction were resuspended in activation media at a concentration of 1×10^6 cells/ml with AIM-V medium (Thermo Fishers) supplemented with 10% fetal calf serum, 300 IU/ml IL2 and 50 ng/ml OKT3 (MuromonAB-CD3) for two days.
CPP/CAS9 complexes were formed by mixing the CAS9 mRNA (0.5 μg) with CPP at a 20:1 molar ratio of CPP:CAS9 mRNA and incubating for 30 min at 37° C. prior to cell transfection. CPP/CAS9-expressing plasmid complexes were formed by mixing the CAS9-expressing plasmid (Addgene MLM3639-Plasmid #42252) (0.5 μg) with CPP at a 20:1 molar ratio of CPP:plasmid and incubating for 30 min at 37° C. prior to cell transfection.
Cells were transfected according to the protocol for suspension cells described in Example 13a. RNAiMAX and lipofectamine 2000 lipid-based delivery methods (Invitrogen Thermo Fisher France) were used as controls, and transfections were performed following the manufacturer's instructions. CAS9 protein expression level was analyzed at multiple time points over a period of 10 days as determine by ELISA on protein extracts using antibodies against CRISPR/Cas9 obtained from Diagenode (Diagenode cat. No. C15200223) and ABCAM (clone 7A9-ab191468).

[10] = test system: endogenous EMX1 gene in primary human T cells; assay: EMX1 editing in primary human T cells with CAS9 mRNA, protein or plasmid plus gRNA (T7E1); format: cell-based; conditions: CAS9-expressing plasmid and gRNA; day 3
Method: CPP/CAS9 mRNA/gRNA complexes were formed by mixing the CAS9 mRNA (0.5 μg) and gRNA (5 μg) with CPP at a 20:1 molar ratio of CPP to nucleic acid (mRNA+gRNA) and incubating for 30 min at 37° C. prior to cell transfection. CPP/plasmid/gRNA complexes were formed by mixing CAS9 expressing plasmid (Addgene MLM3639-Plasmid #42252) (0.5 μg) and gRNA (5 μg) with CPP at a 20:1 molar ratio of CPP to nucleic acid (plasmid+gRNA) and incubating for 30 min at 37° C. prior to cell transfection. CPP/CAS9/gRNA complexes were formed by mixing preloaded CAS9/gRNA complexes (2.5 μg/5 μg CAS9/gRNA) with CPP at a 20:1 molar ratio of CPP to complex and incubating for 30 min at 37° C. prior to cell transfection.
T cells were transfected according to the protocol for suspension cells described in Example 13a. Lipofectamine 2000- and RNAiMAX-mediated delivery methods (Invitrogen Thermo Fisher France) were included as controls. EMX1 gene editing was analyzed at day 3, day 6, and day 10 by T7E1 assay and quantified using a Fragment Analyzer System.

[11] = test system: EGFP reporter gene in EGFP-U2OS cells
Method: ADGN-100 was evaluated for cellular delivery of a plasmid encoding CAS9 and gRNA targeting a specific site in the exogenous EGFP gene reporter in U2OS cells (EGFP-U2OS).
Stock solutions of amphipathic peptides were prepared at 1 mg/mL in distilled water and sonicated for 10 min.
EGFP-U2OS cells containing a single integrated EGFP reporter gene were cultured in Dulbecco's Modified Eagle's Medium (DMEM), supplemented with 2 mM glutamine, 1% antibiotics (streptomycin 10,000 μg/mL, penicillin, 10,000 IU/mL) and 10% (w/v) foetal calf serum (FCS), at 37° C. in a humidified atmosphere containing 5% CO2. A total of 150,000 cells seeded in a 35 mm dish the day prior to transfection were grown to 50-60% confluence and overlaid with 200 μl of preformed complexes, incubated for 3-5 min, then 400 μl of DMEM was added. After 30 min incubation at 37° C., 1 mL of fresh DMEM containing 16% FCS was added to reach a final FCS concentration of 10%, without removing the overlay of CPP/CAS9-gRNA complexes. Cells were returned to the incubator for 72 hours.
CAS9-induced double-strand break formation was analyzed using flow cytometry by monitoring the level of EGFP expression. […] Lipofectamine 2000 delivery was used as positive control.

U2OS cells = conditions: CAS9 mRNA 0.2 μg and 0.5 μg; 20:1; 72 h
Method: U2OS cells were cultured in Dulbecco's Modified Eagle's Medium (DMEM), supplemented with 2 mM glutamine, 1% antibiotics (streptomycin 10,000 μg/mL, penicillin, 10,000 IU/mL) and 10% (w/v) foetal calf serum (FCS), at 37° C. in a humidified atmosphere containing 5% CO2. […] After 20 min incubation at 37° C., 1 mL of fresh DMEM containing 16% FCS was added in order to reach a final FCS concentration of 10%, without removing the overlay of complexes. Cells were returned to the incubator for 72 hours. CAS9 expression level was quantified by western blot on protein extract using antibody against CRISPR/Cas9 (Diagenode cat. No. C15200223).

Swiss mice = conditions: other tissues examined
Method: At 72 hours following injection, animals were sacrificed and tissues including lung, liver, brain, kidney, heart, spleen, blood, and pancreas were collected. Tissues were homogenized and CAS9 expression was analyzed by western blot on protein extract using antibody against CRISPR/Cas9 (Diagenode cat. No. C15200223) or by ELISA using Cas9 monoclonal antibody (SBI clone 7A9).

[12] = test system: Luciferase reporter gene in the liver; conditions: free ADGN-100a peptide
Method: At 72 hours post injection, animals were sacrificed and the following tissues were collected: liver, lung, kidney, spleen, and blood. Luciferase was quantified by fluorescence in the liver. Tissues were homogenized and CAS9 expression was analyzed by ELISA using Cas9 monoclonal antibody (SBI clone 7A9).

CC(C)C[C@H](NC(=O)[C@H](CCCNC(=N)N)NC(=O)[C@H](Cc1c[nH]c2ccccc12)NC(=O)[C@H](CCCNC(=N)N)NC(=O)[C@H](Cc1c[nH]c2ccccc12)NC(=O)CNC(=O)[C@H](C)NC(=O)[C@H](CO)NC(=O)[C@H](CCCNC(=N)N)NC(=O)[C@H](Cc1c[nH]c2ccccc12)NC(=O)[C@H](CCCCN)NC(=O)CCN)C(=O)N[C@@H](Cc1c[nH]c2ccccc12)C(=O)N[C@@H](CCCNC(=N)N)C(=O)N[C@H](C(=O)N[C@@H](CCCNC(=N)N)C(=O)N[C@@H](CO)C(=O)N[C@@H](Cc1c[nH]c2ccccc12)C(=O)N[C@@H](CO)C(=O)N[C@@H](CCCNC(=N)N)C(=O)O)C(C)C [ADGN-100a]
PI ([1]; Cas9:gRNA, molar ratio 10/1): 0.27 ± 0.1 | Size ([1]; Cas9:gRNA, molar ratio 10/1): 91 ± 5 nm | zeta ([1]; Cas9:gRNA, molar ratio 10/1): 5.3±1.0 MV and 5.3 ± 0.7 MV | PI ([1]; Cas9:gRNA, molar ratio 20/1): 0.28 ± 0.1 | Size ([1]; Cas9:gRNA, molar ratio 20/1): 87 ± 6 nm | zeta ([1]; Cas9:gRNA, molar ratio 20/1): 4.8±0.3 MV | Pt ([1]; Cas9, molar ratio 10/1): 0.25 ± 0.1 | zeta ([1]; Cas9, molar ratio 10/1): 6.0±0.8 mV | Size ([1]; Cas9, molar ratio 10/1, 0.9% NaCl): 82 ± 5 nm | Pt ([1]; Cas9, molar ratio 20/1): 0.21 ± 0.1 | Size ([1]; Cas9, molar ratio 20/1): 78 ± 7 nm | zeta ([1]; Cas9, molar ratio 20/1): 7.2±1 mV | formation of stable nanoparticles ([1]; with CAS9 and CAS9:gRNA complex, molar ratio 10:1 or 20:1): able to form stable nanoparticles | Mean diameter ([1]; with CAS9 and CAS9:gRNA, molar ratio 10:1 or 20:1): ~80 nm | reduction of EGFP-positive cells ([2]; EGFP-JURKAT): 81% | reduction of number of EGFP-expressing cells ([2]; HEK, 1 nM CAS9:gRNA): 62% | decrease in EGFP expression ([2]; HEK): 86% | reduction of EGFP-expressing cells / loss of EGFP expression ([2]; JURKAT, 1 nM CAS9:gRNA): 51% | reduction of number of EGFP-expressing cells ([2]; U2OS, 1 nM CAS9:gRNA): 57% | decrease in EGFP expression ([2]; U2OS): 87% | Mean indel Frequency ± S.E.M ([3]; H9, AAVS): 60 ± 5% | Mean indel Frequency ± S.E.M ([3]; H9, EMX1): 61 ± 6% | Mean indel Frequency ± S.E.M ([3]; H9, HPRT): 61 ± 5% | Mean indel Frequency ± S.E.M ([3]; U2OS, AAVS): 72 ± 4% | Mean indel Frequency ± S.E.M ([3]; U2OS, EMX1, 20 nM each complex): 78 ± 7% | Mean indel Frequency ± S.E.M ([3]; U2OS, HPRT): 78 ± 6% | Mean indel Frequency ± s.e.m ([4]; JURKAT, CAS9/sgRNA 2.5 μg/5 μg): 70 ± 5% | Mean indel Frequency ± s.e.m ([4]; JURKAT, CAS9/sgRNA 5 μg/10 μg): 72% | Mean indel Frequency ± s.e.m ([4]; JURKAT, CAS9/sgRNA 5 μg/10 μg, listed as ADGN400a): 72 ± 2% | Mean indel Frequency ± s.e.m ([4]; K562, CAS9/sgRNA 2.5 μg/5 μg): 68 ± 2% | Mean indel Frequency ± s.e.m ([4]; K562, CAS9/sgRNA 5 μg/10 μg): 71% | Mean indel Frequency ± s.e.m ([4]; K562, CAS9/sgRNA 5 μg/10 μg, listed as ADGN400a): 71 ± 5% | Mean indel Frequency ± s.e.m ([5]; Donor 1, CAS9/sgRNA 2.5 μg/5 μg): 48 ± 6% | Mean indel Frequency ± s.e.m ([5]; Donor 1, CAS9/sgRNA 5 μg/10 μg): 56 ± 4% | Mean indel Frequency ± s.e.m ([5]; Donor 2, CAS9/sgRNA 2.5 μg/5 μg): 52 ± 5% | Mean indel Frequency ± s.e.m ([5]; Donor 2, CAS9/sgRNA 5 μg/10 μg): 61 ± 8% | mean indel frequency of hPD1 gene ([5]; T cells from the two donors, 5 μg/10 μg CAS9/gRNA): 58% | toxicity (JURKAT and K562 cells): no toxicity | mean indel frequency ([6]; differentiated C2C12): 47% | mean indel frequency ([6]; undifferentiated C2C12, 5 μg/10 μg CAS9/gRNA, 20:1): 79% | editing of ü-Catenin and HPRT genes [7]: robust editing | mean indel frequencies [8]: about 60% | mean indel frequencies [9]: 45-50% | ELISA signal for CAS9 protein expression (primary human T cells; CAS9-expressing plasmid 0.5 μg): about 4 times the background | ELISA signal for CAS9 protein expression (primary human T cells; CAS9 mRNA 0.5 μg): about 15 times the background | mean indel frequencies [10]: about 30% | decrease in EGFP expression ([11]; molar ratio 10:1 of ADGN-100a to each nucleic acid): 23% | decrease in EGFP expression ([11]; molar ratio 20:1): 38% | CAS9 protein expression (U2OS cells): dose-dependent expression of CAS9 protein | CAS9 protein expression (Swiss mice): No significant increase | change in luciferase expression [12]: no change in luciferase expression
